Tests used:
Settings in all cases: 72 h
U2OS [1] = test: drug sensitivity score (DSS) for viability; higher = more toxic; extreme values may be limits of the assay
Caco-2 [2] = test: as above
Vero E6 [3] = test: as above
Calu-3 [4] = test: as above
HepG2 [5] = test: as above
U2OS [6] = test: relative viability EC50 (midpoint between 100% and the lowest measured viability); higher = less toxic
Caco-2 [7] = test: as above
Vero E6 [8] = test: as above
Calu-3 [9] = test: as above
HepG2 [10] = test: as above
U2OS [11] = test: cell viability relative to DMSO; higher = less toxic
Caco-2 [12] = test: as above
Vero E6 [13] = test: as above
Calu-3 [14] = test: as above
HepG2 [15] = test: as above

| Compound | drug sensitivity score (U2OS [1]) | drug sensitivity score (Caco-2 [2]) | drug sensitivity score (Vero E6 [3]) | drug sensitivity score (Calu-3 [4]) | drug sensitivity score (HepG2 [5]) | relative viability EC50 (U2OS [6]) [µM] | relative viability EC50 (Caco-2 [7]) [µM] | relative viability EC50 (Vero E6 [8]) [µM] | relative viability EC50 (Calu-3 [9]) [µM] | relative viability EC50 (HepG2 [10]) [µM] | cell viability (U2OS [11]; 1 nM) [%] | cell viability (U2OS [11]; 10 nM) [%] | cell viability (U2OS [11]; 100 nM) [%] | cell viability (U2OS [11]; 1000 nM) [%] | cell viability (U2OS [11]; 10000 nM) [%] | cell viability (Caco-2 [12]; 1 nM) [%] | cell viability (Caco-2 [12]; 10 nM) [%] | cell viability (Caco-2 [12]; 100 nM) [%] | cell viability (Caco-2 [12]; 1000 nM) [%] | cell viability (Caco-2 [12]; 10000 nM) [%] | cell viability (Vero E6 [13]; 1 nM) [%] | cell viability (Vero E6 [13]; 10 nM) [%] | cell viability (Vero E6 [13]; 100 nM) [%] | cell viability (Vero E6 [13]; 1000 nM) [%] | cell viability (Vero E6 [13]; 10000 nM) [%] | cell viability (Calu-3 [14]; 1 nM) [%] | cell viability (Calu-3 [14]; 10 nM) [%] | cell viability (Calu-3 [14]; 100 nM) [%] | cell viability (Calu-3 [14]; 1000 nM) [%] | cell viability (Calu-3 [14]; 10000 nM) [%] | cell viability (HepG2 [15]; 1 nM) [%] | cell viability (HepG2 [15]; 10 nM) [%] | cell viability (HepG2 [15]; 100 nM) [%] | cell viability (HepG2 [15]; 1000 nM) [%] | cell viability (HepG2 [15]; 10000 nM) [%] |
| --- | --- | --- | --- | --- | --- | --- | --- | --- | --- | --- | --- | --- | --- | --- | --- | --- | --- | --- | --- | --- | --- | --- | --- | --- | --- | --- | --- | --- | --- | --- | --- | --- | --- | --- | --- |
| C=CC(=O)N1CCC[C@@H](n2nc(-c3ccc(Oc4ccccc4)cc3)c3c(N)ncnc32)C1 [ibrutinib] | 0 | 0 | 0 | 0 | 0 | > 10 | > 10 | > 10 | > 10 | > 10 | 101 | 100 | 98.6 | 97.6 | 100 | 103 | 97.3 | 101 | 96.8 | 101 | 99.4 | 95.5 | 101 | 98.7 | 92.1 | 100 | 92 | 94.5 | 98.3 | 103 | 97 | 99.1 | 104 | 97.2 | 95.3 |
| COc1cc(C(C)=O)ccc1OCCCN1CCC(c2noc3cc(F)ccc23)CC1 [iloperidone] | 0 | 0.8 | 0 | 0.4 | 0 | > 10 | > 10 | > 10 | > 10 | > 10 | 97.9 | 97.5 | 96.6 | 99.6 | 91 | 90.7 | 98.5 | 84.8 | 94.9 | 82 | 101 | 96.7 | 94.7 | 98 | 95.6 | 93 | 96.7 | 104 | 104 | 80.5 | 91.9 | 91.3 | 94.4 | 94.2 | 88.6 |
| NCCCCCc1c[nH]cn1 [impentamine] | 0 | 0 | 0 | 0 | 0 | > 10 | > 10 | > 10 | > 10 | > 10 | 95.7 | 102 | 96.6 | 98.3 | 95.4 | 98 | 97.9 | 91.6 | 97 | 91.3 | 96.6 | 99.3 | 99.9 | 93.5 | 96.9 | 98.3 | 99.4 | 100 | 98.5 | 91.9 | 96.6 | 93.9 | 103 | 97.5 | 101 |
| CCC(Cc1c(I)cc(I)c(N)c1I)C(=O)O (stereo not given) [iopanic-acid] | 0 | 0 | 0 | 0 | 0 | > 10 | > 10 | > 10 | > 10 | > 10 | 99.7 | 95.6 | 97.9 | 96.7 | 97.1 | 110 | 107 | 98.8 | 85.8 | 113 | 109 | 103 | 104 | 102 | 93 | 101 | 91.4 | 96.4 | 102 | 108 | 106 | 112 | 100 | 110 | 99 |
| CN(C)/C=N/c1c(I)cc(I)c(CCC(=O)O)c1I [iopodic-acid] | 0 | 0 | 0 | 0 | 0 | > 10 | > 10 | > 10 | > 10 | > 10 | 98.2 | 100 | 98.9 | 102 | 97.2 | 99.8 | 102 | 94.3 | 96.2 | 105 | 108 | 101 | 108 | 99.1 | 102 | 101 | 95.4 | 89.5 | 99.4 | 93.2 | 98.8 | 93.7 | 116 | 95 | 98.4 |
| C=CCN1CC[C@]23CCCC[C@H]2[C@H]1Cc1ccc(O)cc13 [levallorphan] | 0 | 0 | 0 | 0 | 0 | > 10 | > 10 | > 10 | > 10 | > 10 | 98.6 | 93.8 | 97.3 | 102 | 103 | 94.6 | 105 | 108 | 95.6 | 104 | 101 | 103 | 99.3 | 105 | 101 | 108 | 97 | 99.8 | 101 | 104 | 102 | 105 | 94.2 | 98.9 | 88.8 |
| Cc1ccc(F)cc1C(=O)Nc1ccc(C(=O)N2Cc3cccn3Cc3ccccc32)c(Cl)c1 [lixivaptan] | 0 | 0 | 0 | 0 | 0.2 | > 10 | > 10 | > 10 | > 10 | > 10 | 101 | 96.5 | 101 | 96.3 | 97.7 | 96.6 | 88.4 | 91.4 | 88.3 | 95 | 106 | 103 | 102 | 102 | 95.8 | 102 | 98.6 | 96.2 | 105 | 108 | 114 | 108 | 99.5 | 103 | 84.2 |
| COc1ccc(CN2CCN(C(c3ccc(F)cc3)c3ccc(F)cc3)CC2)c(OC)c1OC [lomerizine] | 0 | 0.3 | 0 | 0 | 0 | > 10 | > 10 | > 10 | > 10 | > 10 | 89.7 | 99.3 | 90.3 | 95.1 | 99.1 | 96.9 | 104 | 87.9 | 98.8 | 82.7 | 92.7 | 96.5 | 91.7 | 93.7 | 96.7 | 88.9 | 98.3 | 94 | 139 | 96 | 110 | 102 | 102 | 93 | 106 |
| CNC(=O)c1cccc2cc(Oc3ccnc4cc(OCC5(N)CC5)c(OC)cc34)ccc12 [lucitanib] | 0 | 0 | 1.2 | 0 | 0.2 | > 10 | > 10 | > 10 | > 10 | > 10 | 99.1 | 94.4 | 93.6 | 99 | 91.5 | 93.6 | 98.1 | 93.2 | 97.6 | 100 | 97.2 | 100 | 98.8 | 86.1 | 86 | 98.8 | 93 | 101 | 98.9 | 92.1 | 95.7 | 108 | 106 | 104 | 84 |
| COc1cc(-n2c(=S)[nH]c3ccccc3c2=O)c(Cl)cc1Cl [mdivi-1] | 0 | 0.1 | 0 | 0 | 0 | > 10 | > 10 | > 10 | > 10 | > 10 | 99.6 | 104 | 101 | 99.7 | 92.4 | 103 | 98.1 | 94.2 | 94.4 | 86.6 | 97.8 | 106 | 95.1 | 97.3 | 93 | 95.2 | 97.8 | 96.2 | 98.6 | 92.1 | 94.8 | 94.3 | 99.9 | 95.7 | 88.3 |
| CNC[C@H](O)[C@@H](O)[C@H](O)[C@H](O)CO [meglumine] | 0 | 0 | 0 | 0 | 0 | > 10 | > 10 | > 10 | > 10 | > 10 | 98.3 | 92.8 | 104 | 90.8 | 99 | 92.6 | 76.1 | 95.3 | 104 | 95.1 | 88.3 | 91.3 | 93.9 | 99.5 | 96.5 | 108 | 95.7 | 99.4 | 88.2 | 97.7 | 89.7 | 93.5 | 81.5 | 98.1 | 85 |
| C1N2CN3CN1CN(C2)C3 [methenamine] | 0 | 0 | 0 | 0 | 0 | > 10 | > 10 | > 10 | > 10 | > 10 | 89.9 | 97.5 | 100 | 98.2 | 99.7 | 94.6 | 99.8 | 96.5 | 104 | 106 | 98.7 | 92.3 | 93.1 | 94.6 | 102 | 97.1 | 96.4 | 97.2 | 102 | 93.5 | 98.4 | 96.2 | 102 | 105 | 106 |
| CCOC(=O)[C@@](C)(N)Cc1ccc(O)c(O)c1 [methyldopate] | 0 | 0 | 0 | 0 | 0 | > 10 | > 10 | > 10 | > 10 | > 10 | 103 | 98.4 | 101 | 102 | 89.3 | 103 | 101 | 100 | 103 | 88.4 | 99.6 | 98.4 | 97.4 | 107 | 97.7 | 91.4 | 97.1 | 101 | 102 | 92.5 | 95.7 | 96.4 | 97.4 | 97.4 | 90.9 |
